# Results as given in paper PMC10779143, “Collagen-like Osteoclast-Associated Receptor (OSCAR)-Binding Motifs Show a Co-Stimulatory Effect on Osteoclastogenesis in a Peptide Hydrogel System” (International Journal of Molecular Sciences, 2023).
# “Also recorded” adds a separate entry of the source. Where a SMILES comes first, the peptide text is derived from it. [ ]: non-standard residue; d: D form. Hyp = O=C(O)[C@@H]1C[C@@H](O)CN1
# What was measured:
# [1] = test system: TRAP gene expression, Raw 264.7 cells; assay: qRT-PCR TRAP gene expression, Raw 264.7 cells on hydrogels; type: cell-based; conditions: incorporated in FF/S/RGDH hydrogel, 10 ng/mL hRANKL
# Text: (§1) Fmoc-FF/S (Fmoc-diphenylalanine/serine, 1:1 molar ratio) and Fmoc-FF/S/RGD (1:0.5:0.5 molar ratio) peptides were provided by Biogelx Ltd., Edinburgh, UK. Hydroxyapatite (Hap) nanopowder (formula: Ca10(PO4)6(OH)2, with average particle size <200 nm) was purchased from Sigma-Aldrich (Dorset, UK, product code: 677418) and used as received. Hydrogels made up of Fmoc-based peptides and hydroxyapatite were fabricated as described previously. Hap-decorated Fmoc-FF/S/RGD hydrogels (FF/S/RGDH) were tested in combination with OP1_Hyp, OP1_Pro, and OCol1 to evaluate the contribution of OSCAR as a co-stimulatory pathway for OCP differentiation. […]
# (§2) The day after hydrogel fabrication, 2 mL of Raw 264.7 cells (4 × 10^5 cells/mL) were seeded on top of FF/S/RGDH hydrogels containing the collagen-like OSCAR-binding peptides (OP1_Hyp, OP1_Pro) or recombinant collagen-like protein (OCol1). […] After 7 days of culture, cell viability on the peptide- or protein-modified FF/S/RGDH hydrogels was evaluated by using a LIVE/DEAD assay (ThermoFisher Scientific, Swindon, UK). […] After 30 min of incubation, cells were washed 3 times in PBS and imaged using a Nikon Eclipse 50i fluorescence microscope (Tokyo, Japan) (emission wavelengths: green channel for live cells: 515 nm; red channel for dead cells: 635 nm; excitation wavelength: 495 nm). […]
# (§3) Gene expression of OC markers was evaluated as previously described. […]
# Raw 264.7 cells [2] = assay: TRAP staining / osteoclast morphology of Raw 264.7 cells on peptide-coated tissue culture plastic; type: cell-based; conditions: for Osteoclast features / TRAP staining, 10 ng/mL hRANKL / Osteoclast features / TRAP staining, 100 ng/mL hRANKL / Differentiation without hRANKL (TRAP staining): 5 days on coated TCP; for Osteoclast features / TRAP staining, 10 ng/mL hRANKL: 10 ng/mL hRANKL (suboptimal); for Osteoclast features / TRAP staining, 100 ng/mL hRANKL: peptide effect masked by high hRANKL; for Differentiation without hRANKL (TRAP staining): no hRANKL added; for Overall effect on differentiation of Raw 264.7 cells on coated TCP: used as substrate on TCP
# Procedure: (§4) Raw 264.7 cells were cultured and passaged as previously described. Cell adhesion to OP1_Hyp and OP1_Pro was assessed as shown by Barrow et al.. Briefly, 48-well plates were coated with 10 µg/mL of OSCAR-binding peptides overnight at 4 °C. The excess peptide was then removed by washing with PBS before adding 1% BSA to block non-specific binding sites for 1 h at 25 °C. Raw 264.7 cells were then resuspended at a concentration of 2 × 10^5 cells/mL and added to the well. Cells were cultured with different concentrations of human RANKL (hRANKL) (catalogue number: 310-01 from Peprotech, London, UK) (0–100 ng/mL) for up to 5 days to assess the contribution of the OSCAR-binding peptides OP1_Hyp and OP1_Pro to the differentiation of Raw 264.7 cells to mature OCs.
# After 5 days of post-culture, Raw 264.7 cells were fixed in 4% PFA for 15 min at room temperature. TRAP was stained following the manufacturer’s protocol and evaluated by light microscopy (ThermoFisher, Swindon, UK). Multinucleated TRAP+ cells containing more than three nuclei were scored as mature OCs.
# [3] = target: T1, recombinant human OSCAR-Fc chimera (Homo sapiens, UniProt Q8IYS5); assay: Surface plasmon resonance (SPR) analysis of the peptide-OSCAR interaction; type: binding; conditions: 25 °C; for Association/dissociation behaviour in sensorgrams: immobilised human OSCAR-Fc, pH 7.4
# T1 construct: extracellular region of human OSCAR (Asp19-Asn229, NP_573399); purchased R&D Systems, Bio-Techne 9955-OS
# T1 sequence (Q8IYS5 19-229 isoform Q8IYS5-2): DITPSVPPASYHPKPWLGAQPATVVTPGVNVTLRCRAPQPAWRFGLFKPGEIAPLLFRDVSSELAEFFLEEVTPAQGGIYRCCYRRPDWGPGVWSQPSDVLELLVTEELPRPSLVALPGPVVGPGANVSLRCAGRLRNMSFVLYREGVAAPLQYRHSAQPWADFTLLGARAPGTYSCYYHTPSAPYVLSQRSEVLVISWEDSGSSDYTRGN
# Procedure: Surface plasmon resonance (SPR) was used to determine the binding affinity between OP1_Hyp or OP1_Pro and a recombinant human OSCAR-Fc chimera made from the extracellular region of human OSCAR (Asp19-Asn229, NP_573399) and the Fc domain from human IgG1 (Pro100-Lys330, P01857-1). A kinetic analysis was performed with immobilised OSCAR-Fc, OP1_Hyp, and OP1_Pro as analytes. A Langmuir 1:1 model was used to perform the kinetic analysis. This model is based on a simple interaction between ligand and analytes where a 1:1 molar complex is formed at equilibrium, i.e., A + B ⇄ AB. The kinetics of the reaction are determined by the association and dissociation rate constants (ka and kd, respectively), with an overall affinity constant (KD) given by KD = kd/ka.
# SPR analyses were carried out on a Biacore™ T200 (Cytiva) using a Series S CM5 sensor chip with an assay running buffer of 10 mM PBS, 150 mM NaCl, 0.05% Tween20, pH 7.4. Reference and active flow cells were activated by injecting 70 μL of a 1:1 mixture of 0.2 M 1-ethyl-3-(3-dimethylaminopropyl)-carbodiimide (EDC) and 0.1 M N-hydroxysuccinimide (NHS) at 10 µL/min. Recombinant human OSCAR-Fc chimera (R&D Systems, Bio-Techne, Minneapolis, MN, USA, 9955-OS) was immobilised onto the active flow cell at 20 µg/mL in 10 mM sodium acetate pH 5.0 at 10 µL/min to 6880 response units (RU). Reference and active flow cells were blocked using 1 M ethanolamine, pH 8, at a flow rate of 10 µL/min. For kinetic and equilibrium binding analysis, OP1_Hyp and OP1_Pro peptides were flowed at 25 °C active and reference flow cells at 30 µL/min in assay running buffer at peptide concentrations of 5000—0 nM (OP1_Hyp) and 40,000—0 nM (OP1_Pro), using a dilution series. Surfaces were regenerated with a 10 s injection of 0.1 M glycine, pH 2.0. Data sets were analysed with the built-in BiaEvaluation software (version 4.1). The models used for analysis were the Langmuir 1:1 binding model and the steady-state analysis model. Data are presented as the mean and standard error of the mean (SEM) of triplicate runs.
# Raw 264.7 cells [4] = assay: F-actin staining / osteoclast-like morphology and differentiation of Raw 264.7 cells on hydrogels; type: cell-based; conditions: 10 ng/mL hRANKL
# [5] = CD analysis of secondary structure (collagen triple helix) and refolding; type: physicochemical; conditions: CD Buffer pH 7.4; for Triple helical features (positive ellipticity band) at 70 °C: CD at 70 °C; for Secondary structure by CD: CD spectra 190-260 nm at 10 °C, 0.5 mg/mL peptides, 0.2 mg/mL OCol1; for Refolding of the triple helix after denaturation: cooling from 70 °C to 10 °C, approximately 30 min, 210 µM peptides, 12 µM OCol1
# Procedure: Secondary structures of OP1_Hyp, OP1_Pro, and OCol1 were analysed by circular dichroism (CD) spectroscopy using a Jasco® J-810 spectropolarimeter (UCI, Irvine, CA, USA) equipped with a Peltier temperature controller. OP1_Hyp and OP1_Pro were resuspended up to a concentration of 0.5 mg/mL in a CD transparent buffer (10 mM K2HPO4, 10 mM KH2PO4, 150 mM KF, pH 7.4, CD Buffer) [15] and kept for 24 h at 4 °C to allow for the formation of the collagen triple helical structure. OCol1 was exchanged to CD Buffer using a PD 10 disposable desalting column (GE17-0851-01, Merck, Feltham, UK). Briefly, the column was equilibrated with five column volumes of CD Buffer before the addition of OCol1 to the storage buffer. After flow-through collection, 0.5 mL fractions were collected into 1.5 mL Eppendorf tubes. The OCol1 elution fractions were quickly analysed by CD, and the one with the highest concentration (0.2 mg/mL) was used. CD spectra were measured between 190 nm and 260 nm at 10 °C using a 1 mm path-length CD-matched quartz cuvette (Starna Scientific, Ilford, UK). Data were collected every 0.2 nm with a 1 nm bandwidth. Spectral baselines were corrected by subtracting the spectrum of CD Buffer (blank) collected under the same conditions. Additionally, the thermal stability of OP1_Hyp, OP1_Pro, and OCol1 was analysed. Thermal transition profiles were recorded between 10 °C and 60 °C (OP1_Hyp and OP1_Pro) or 70 °C (OCol1) at 222 nm with a data pitch of 0.2 °C, a bandwidth of 1 nm, a detector response time of 32 s, and a temperature slope of 1 °C/min. Samples were cooled back to 10 °C after the different transitions had been completed, and final spectra were recorded at that temperature. Ellipticity in millidegrees was converted to mean residue molar ellipticity Θ (degree cm^2 dmol^−1) by normalising for the number of residues on each peptide or protein [23].
# [6] = test system: TRAP gene expression, Raw 264.7 cells; assay: qRT-PCR TRAP gene expression, Raw 264.7 cells on peptide-coated TCP; type: cell-based; conditions: for TRAP expression, 100 ng/mL hRANKL: 5 days vs day 1, relative to GAPDH; for TRAP expression, 100 ng/mL hRANKL / TRAP expression, 0-1 ng/mL hRANKL: n = 3; for TRAP expression, 10 ng/mL hRANKL: 5 days, n = 3, lower than with 100 ng/mL hRANKL; for TRAP expression, 10 ng/mL hRANKL / TRAP expression, 0-1 ng/mL hRANKL: relative to GAPDH; for TRAP expression, 0-1 ng/mL hRANKL: five days
# Procedure: as §4
# (§5) Gene expression of OC markers was evaluated as previously described. A StepOne™ Real-Time PCR System (Applied Biosystems, Warrington, UK) was used, with TaqMan probes and a universal PCR Master Mix (Life Technologies, Carlsbad, CA, USA, 4304437) in a total volume of 10 µL. The TaqMan probes for TRAP and OSCAR were Mm00475698_m1 and Mm01338227_g1, respectively. Data were analysed using the 2^−∆Ct method and normalised to the endogenous housekeeping gene GAPDH (Mm99999915_g1). Experiments were performed in triplicate.
# [7] = test system: OSCAR gene expression, Raw 264.7 cells; assay: qRT-PCR OSCAR gene expression, Raw 264.7 cells on peptide-coated TCP; type: cell-based; conditions: n = 3; for OSCAR expression, 100 ng/mL hRANKL: 5 days vs day 1, relative to GAPDH; for OSCAR expression, 10 ng/mL hRANKL: 5 days; for OSCAR expression, 10 ng/mL hRANKL / OSCAR expression, 0-1 ng/mL hRANKL: relative to GAPDH; for OSCAR expression, 0-1 ng/mL hRANKL: five days
# Procedure: as §4, §5
# [8] = test system: OSCAR gene expression, Raw 264.7 cells; assay: qRT-PCR OSCAR gene expression, Raw 264.7 cells on hydrogels; type: cell-based; conditions: 10 ng/mL hRANKL, relative to GAPDH, n = 3
# Text: as §1, §2, §3
Compound,"TRAP expression, day 3 to day 7 (comparison with literature) [1]","Osteoclast features / TRAP staining, 10 ng/mL hRANKL (Raw 264.7 cells [2])","Osteoclast features / TRAP staining, 100 ng/mL hRANKL (Raw 264.7 cells [2])",Differentiation without hRANKL (TRAP staining) (Raw 264.7 cells [2]),"OC differentiation effect, lower suboptimal hRANKL, comparison of peptides (Raw 264.7 cells [2]; coated TCP, lower, suboptimal hRANKL)",Overall effect on differentiation of Raw 264.7 cells on coated TCP (Raw 264.7 cells [2]),Association/dissociation behaviour in sensorgrams [3],"Differentiation of Raw 264.7 cells to OCs on collagen-modified hydrogels (Raw 264.7 cells [4]; 7 days, incorporated in FF/S/RGDH hydrogel)","OC-like features, improvement vs unmodified hydrogels (Raw 264.7 cells [4]; hydrogels)",Triple helical features (positive ellipticity band) at 70 °C [5],Secondary structure by CD [5],Refolding of the triple helix after denaturation [5],"TRAP expression, 100 ng/mL hRANKL [6]","TRAP expression, 10 ng/mL hRANKL [6]","TRAP expression, 0-1 ng/mL hRANKL [6]","OSCAR expression, 100 ng/mL hRANKL [7]","OSCAR expression, 10 ng/mL hRANKL [7]","OSCAR expression, 0-1 ng/mL hRANKL [7]","OSCAR expression change, day 3 to day 7 [8]",Retention of OSCAR binding on replacing Hyp with Pro ([3]; Hyp at position 3 replaced with Pro)
CC(=O)NCC(=O)N1CCC[C@H]1C(=O)N1C[C@H](O)C[C@H]1C(=O)NCC(=O)N1CCC[C@H]1C(=O)N1C[C@H](O)C[C@H]1C(=O)NCC(=O)N1CCC[C@H]1C(=O)N1C[C@H](O)C[C@H]1C(=O)NCC(=O)N[C@@H](C)C(=O)N1C[C@H](O)C[C@H]1C(=O)NCC(=O)N1CCC[C@H]1C(=O)N[C@@H](C)C(=O)NCC(=O)N[C@@H](Cc1ccccc1)C(=O)N[C@@H](C)C(=O)NCC(=O)N1CCC[C@H]1C(=O)N1C[C@H](O)C[C@H]1C(=O)NCC(=O)N1CCC[C@H]1C(=O)N1C[C@H](O)C[C@H]1C(=O)NCC(=O)N1CCC[C@H]1C(=O)N1C[C@H](O)C[C@H]1C(N)=O [OP1_Hyp] (Ac-GP[Hyp]GP[Hyp]GP[Hyp]GA[Hyp]GPAGFAGP[Hyp]GP[Hyp]GP[Hyp]-NH2),increased significantly between day 3 and day 7 of culture,more cells showing OC-like features such as multinucleation; also recorded: still showed signs of osteoclastogenesis,typical OC features,not able to trigger any differentiation on their own,much more evident for OP1_Hyp compared to OP1_Pro,positive effect on differentiation,a progressive binding phase to OSCAR with a slow release at all the concentrations tested,the effect was more evident with OP1_Hyp; also recorded: positive effect on osteoclastogenesis,"greater bioactivity (i.e., higher nuclei/cell distribution, increased cell diameter)",disappeared from the CD spectra,"a band of positive ellipticity with a maximum at ~220 nm and a deep band of negative ellipticity with a minimum at ~198 nm, previously associated with the typical conformation of the collagen triple helix",partial recovery of the collagen structure,significantly higher after 5 days,TRAP expression was lower,either expressed at lower amounts or did not change significantly after five days of culture,significantly higher compared to day 1,still significantly higher,either expressed at lower amounts or did not change significantly after five days of culture,increased significantly between day 3 and day 7 of culture,
Ac-GPOGPOGPOGAPGPAGFAGPOGPOGPO-NH2 [OP1_Pro],,still showed signs of osteoclastogenesis,typical OC features,not able to trigger any differentiation on their own,,positive effect on differentiation,both association and dissociation phases occurred very quickly,,,disappeared from the CD spectra,"a band of positive ellipticity with a maximum at ~220 nm and a deep band of negative ellipticity with a minimum at ~198 nm, previously associated with the typical conformation of the collagen triple helix",partial recovery of the collagen structure,significantly higher after 5 days,TRAP expression was lower,either expressed at lower amounts or did not change significantly after five days of culture,significantly higher compared to day 1,still significantly higher,either expressed at lower amounts or did not change significantly after five days of culture,,OSCAR binding is not abolished
